This note sets out measurements from patent US5428059A, “Benzopyran derivatives and an anti-allergic agent possessing the same as the active ingredient” (Dainippon Ink & Chemicals, Inc., priority 1991, dated 1995).

Molecules are shown by their SMILES.

The subject of the assay is Hartley-type male guinea pigs. The assay can be described thus: Guinea Pig Homogeneous Skin Passive Anaphylaxis Assay (PCA reaction). It counts as in vivo, guinea pig (Hartley-type). Conditions: Cavia porcellus, 10 mg/kg oral, 48 h after sensitization, read-out: Allergic reaction inhibitory index (%). How it is done:
In order to confirm the anti-allergic action of the compounds according to the present invention, as an anti-allergic action confirmation assay, the widely used Guinea Pig Homogeneous Skin Passive Anaphylaxis Assay (PCA Reaction Assay; Passive Cutaneous Anaphylaxis Reaction Assay) was carried out. The assay method used will be explained in the following.
Assay method: Hartley-type male guinea pigs (body weight: 250~300 g) were sensitized by the following procedure; a mixture of 2 μg of egg albumin (OVA) and 5 μg of aluminium hydroxide gel was administered intraperitoneally 3 times every 2 weeks, and the anti-OVA blood serum was manufactured.
The anti-blood serum obtained was then diluted 120 times using physiological saline solution, and then to groups each containing 6 shaved guinea pigs, was injected at a quantity of 0.05 ml respectively, into two positions in the back portion, inside the skin of each animal.
After the 48th hour of sensitization, 10 mg/kg of the test substance to be tested was orally administered, following which a mixture of 2 mg OVA and 5 mg of Evans Blue was administered by intraveneous injection into the hind leg, triggering the anaphylaxis reaction. As the positive control, Tranilast, a well known anti-allergic agent, was used, and in the same manner as the substances to be tested, 100 mg/kg of it was orally administered after the 48th hour of sensitization.
30 minutes after triggering the reaction, the animals were bled to death under ether anesthesia, and their back portion skins were peeled off. The long and short diameters of pigment leakage spots on the interior surface of the skins were measured, and the product of these (mm^2) were entered into formula 1 as "pigment leakage amount", from which the allergic reaction inhibitory index wins calculated. [formula]
I: Allergic reaction inhibitory index (%)
A: Pigment leakage amount of solvent control group
B: Pigment leakage amount of test substance group
C: Pigment leakage amount of […]
As for `O=c1oc2cccc(O)c2c(O)c1O` [Compound 177, 3,4,5-trihydroxy-2H-1-benzopyran-2-one], the inhibition in vivo at 10 mg/kg worked out at 37%. As for `COc1ccc2c(O)c(OC(C)C)c(=O)oc2c1` [Compound 34, 3-(isopropoxy)-4-hydroxy-7-(methoxy)-2H-1-benzopyran-2-one], the inhibition in vivo at 10 mg/kg amounted to 39%. In the case of `COc1ccc2c(OC/C=C(\C)CCC=C(C)C)c(OC)c(=O)oc2c1` [Compound 42, 3,7-(dimethoxy)-4-(geranyloxy)-2H-1-benzopyran-2-one], the inhibition in vivo at 10 mg/kg is 33%. As for `CC(=O)Oc1c(OC(=O)c2ccccc2)c2cccc(O)c2oc1=O` [Compound 96, 3-(acetoxy)-4-(benzoyloxy)-8-hydroxy-2H-1-benzopyran-2-one], the figure is 32%.

Regarding `COc1c(OC/C=C(\C)CCC=C(C)C)c(=O)oc2cccc(OC/C=C(\C)CCC=C(C)C)c12` [Compound 257, 3,5-(digeranyloxy)-4-(methoxy)-2H-1-benzopyran-2-one], the inhibition in vivo at 10 mg/kg was determined as 31%. To `O=C(Oc1c(O)c(=O)oc2cc(O)ccc12)c1ccccc1` [Compound 8, 4-(benzoyloxy)-3,7-(dihydroxy)-2H-1-benzopyran-2-one] belongs 40%. On to `COc1c(OC)c2ccc(O)cc2oc1=O` [Compound 17, 3,4-(dimethoxy)-7-hydroxy-2H-1-benzopyran-2-one], for which the inhibition in vivo at 10 mg/kg came out at 31%. For `COc1ccc2c(OC(C)C)c(OC/C=C(\C)CCC=C(C)C)c(=O)oc2c1` [Compound 41, 3-(geranyloxy)-4-(isopropoxy)-7-(methoxy)-2H-1-benzopyran-2-one], the inhibition in vivo at 10 mg/kg was found to be 30%.

In the case of `CC(C)Oc1ccc2c(O)c(O)c(=O)oc2c1` [Compound 45, 3,4-dihydroxy-7-(isopropoxy)-2H-1-benzopyran-2-one], the inhibition in vivo at 10 mg/kg was 58%. With `CCCCCCCCCCOc1cccc2c(OCCCC)c(O)c(=O)oc12` [Compound 148, 3-hydroxy-4-(butoxy)-8-(decyloxy)-2H-1-benzopyran-2-one], the inhibition in vivo at 10 mg/kg was determined as 31%.

`COc1cccc2oc(=O)c(O)c(OC(C)=O)c12` [Compound 196, 3-hydroxy-4-(acetoxy)-5-(methoxy)-2H-1-benzopyran-2-one]: the inhibition in vivo at 10 mg/kg was 33%. `CC(C)=CCC/C(C)=C/COc1c(OC(=O)c2ccccc2)c(=O)oc2c(OC/C=C(\C)CCC=C(C)C)cccc12` [Compound 170, 3-(benzoyloxy)-4,8-(digeranyloxy)-2H-1-benzopyran-2-one]: the inhibition in vivo at 10 mg/kg worked out at 31%. Regarding `CCCCCCCCCCOc1cccc2c(OC(=O)c3ccccc3)c(OC)c(=O)oc12` [Compound 150, 3-(methoxy)-4-(benzoyloxy)-8-(decyloxy)-2H-1-benzopyran-2-one], the inhibition in vivo at 10 mg/kg is 34%. As for `CC(C)=CCC/C(C)=C/COc1cccc2c(OC(C)C)c(O)c(=O)oc12` [Compound 163, 3-hydroxy-4-(isopropoxy)-8-(geranyloxy)-2H-1-benzopyran-2-one], the inhibition in vivo at 10 mg/kg amounted to 32%. As to `CCCCCCCCCCOc1c(OC(C)=O)c(=O)oc2cccc(OC(C)C)c12` [Compound 217, 3-(acetoxy)-4-(decyloxy)-5-(isopropoxy)-2H-1-benzopyran-2-one], the inhibition in vivo at 10 mg/kg was 30%. For `CCCCCCCCCCOc1c(OC(C)C)c2ccc(OC/C=C(\C)CCC=C(C)C)cc2oc1=O` [Compound 80, 3-(decyloxy)-4-(isopropoxy)-7-(geranyloxy)-2H-1-benzopyran-2-one], the inhibition in vivo at 10 mg/kg worked out at 30%. With `COc1c(OC/C=C(\C)CCC=C(C)C)c2cccc(OC)c2oc1=O` [Compound 125, 3,8-(dimethoxy)-4-(geranyloxy)-2H-1-benzopyran-2-one], the inhibition in vivo at 10 mg/kg amounted to 31%.

As to `CC(=O)Oc1c(O)c(=O)oc2c(OC(C)C)cccc12` [Compound 131, 3-hydroxy-4-(acetoxy)-8-(isopropoxy)-2H-1-benzopyran-2-one], the inhibition in vivo at 10 mg/kg turned out to be 31%. Turning to `CC(=O)Oc1c(O)c(=O)oc2c(O)cccc12` [Compound 94, 3,8-(dihydroxy)-4-(acetoxy)-2H-1-benzopyran-2-one], the inhibition in vivo at 10 mg/kg turned out to be 36%. `CCCCCCCCCCOc1c(O)c2c(OC(C)C)cccc2oc1=O` [Compound 214, 3-(decyloxy)-4-hydroxy-5-(isopropoxy)-2H-1-benzopyran-2-one]: the inhibition in vivo at 10 mg/kg was found to be 38%. To `CC(C)=CCC/C(C)=C/COc1c(O)c2c(O)cccc2oc1=O` [Compound 187, 3-(geranyloxy)-4,5-(dihydroxy)-2H-1-benzopyran-2-one] belongs 30%; to `CCCCCCCCCCOc1cccc2c(OC(C)=O)c(OC/C=C(\C)CCC=C(C)C)c(=O)oc12` [Compound 153, 3-(geranyloxy)-4-(acetoxy)-8-(decyloxy)-2H-1-benzopyran-2-one], 30%; to `COc1ccc2c(OC(=O)c3ccccc3)c(OC/C=C(\C)CCC=C(C)C)c(=O)oc2c1` [Compound 39, 3-(geranyloxy)-4-(benzoyloxy)-7-(methoxy)-2H-1-benzopyran-2-one], 30%. Turning to `CCCCCCCCCCOc1cccc2c(O)c(OC/C=C(\C)CCC=C(C)C)c(=O)oc12` [Compound 151, 3-(geranyloxy)-4-hydroxy-8-(decyloxy)-2H-1-benzopyran-2-one], the inhibition in vivo at 10 mg/kg amounted to 34%. For the compound `CC(C)=CCC/C(C)=C/COc1cccc2oc(=O)c(OC(=O)c3ccccc3)c(OC/C=C(\C)CCC=C(C)C)c12` [Compound 256, 3-(benzoyloxy)-4,5-(digeranyloxy)-2H-1-benzopyran-2-one], the inhibition in vivo at 10 mg/kg came to 30%.

Regarding `COc1cccc2c(OC/C=C(\C)CCC=C(C)C)c(OC/C=C(\C)CCC=C(C)C)c(=O)oc12` [Compound 126, 3,4-(digeranyloxy)-8-(methoxy)-2H-1-benzopyran-2-one], the inhibition in vivo at 10 mg/kg turned out to be 30%.

For the compound `CC(C)=CCC/C(C)=C/COc1ccc2c(OC(C)C)c(O)c(=O)oc2c1` [Compound 79, 3-hydroxy-4-(isopropoxy)-7-(geranyloxy)-2H-1-benzopyran-2-one], the inhibition in vivo at 10 mg/kg turned out to be 32%.

`CCCCCCCCCCOc1cccc2c(OC/C=C(\C)CCC=C(C)C)c(OC(=O)c3ccccc3)c(=O)oc12` [Compound 154, 3-(benzoyloxy)-4-(geranyloxy)-8-(decyloxy)-2H-1-benzopyran-2-one]: the inhibition in vivo at 10 mg/kg stood at 31%. Take `CC(=O)Oc1c(O)c(=O)oc2cccc(OC/C=C(\C)CCC=C(C)C)c12` [Compound 246, 3-hydroxy-4-(acetoxy)-5-(geranyloxy)-2H-1-benzopyran-2-one]: the inhibition in vivo at 10 mg/kg was 30%.

For the compound `CC(=O)Oc1c(OC(=O)c2ccccc2)c(=O)oc2cccc(O)c12` [Compound 180, 3-(benzoyloxy)-4-(acetoxy)-5-hydroxy-2H-1-benzopyran-2-one], the inhibition in vivo at 10 mg/kg is 30%. Turning to `CC(C)=CCC/C(C)=C/COc1ccc2c(OC(C)C)c(OC(=O)c3ccccc3)c(=O)oc2c1` [Compound 81, 3-(benzoyloxy)-4-(isopropoxy)-7-(geranyloxy)-2H-1-benzopyran-2-one], the inhibition in vivo at 10 mg/kg is 31%. Turning to `CC(=O)Oc1c(O)c2ccc(O)cc2oc1=O` [Compound 7, 3-(acetoxy)-4,7-(dihydroxy)-2H-1-benzopyran-2-one], the inhibition in vivo at 10 mg/kg stood at 48%. In the case of `CC(=O)Oc1c(O)c(=O)oc2c(OC/C=C(\C)CCC=C(C)C)cccc12` [Compound 160, 3-hydroxy-4-(acetoxy)-8-(geranyloxy)-2H-1-benzopyran-2-one], the inhibition in vivo at 10 mg/kg is 34%. For `COc1cccc2c(OC(C)C)c(OC/C=C(\C)CCC=C(C)C)c(=O)oc12` [Compound 124, 3-(geranyloxy)-4-(isopropoxy)-8-(methoxy)-2H-1-benzopyran-2-one], the inhibition in vivo at 10 mg/kg stood at 33%. Take `CCCCCCCCCCOc1c(O)c2ccc(OC(C)C)cc2oc1=O` [Compound 48, 3-(decyloxy)-4-hydroxy-7-(isopropoxy)-2H-1-benzopyran-2-one]: the inhibition in vivo at 10 mg/kg is 42%. To `CCCCCCCCCCOc1c(OC(C)=O)c(=O)oc2c(OC)cccc12` [Compound 118, 3-(acetoxy)-4-(decyloxy)-8-(methoxy)-2H-1-benzopyran-2-one] belongs 32%. With `CC(C)=CCC/C(C)=C/COc1c(O)c2ccc(O)cc2oc1=O` [Compound 19, 3-(geranyloxy)-4,7-(dihydroxy)-2H-1-benzopyran-2-one], the inhibition in vivo at 10 mg/kg was determined as 42%. On to `CCCCOc1cccc2oc(=O)c(OC(=O)c3ccccc3)c(O)c12` [Compound 226, 3-(benzoyloxy)-4-hydroxy-5-(butoxy)-2H-1-benzopyran-2-one], for which the inhibition in vivo at 10 mg/kg turned out to be 33%.

Regarding `CCCCCCCCCCOc1ccc2c(OC/C=C(\C)CCC=C(C)C)c(OC(=O)c3ccccc3)c(=O)oc2c1` [Compound 70, 3-(benzoyloxy)-4-(geranyloxy)-7-(decyloxy)-2H-1-benzopyran-2-one], the inhibition in vivo at 10 mg/kg amounted to 30%. Consider `CC(C)Oc1c(O)c2ccc(O)cc2oc1=O` [Compound 15, 3-(isopropoxy)-4,7-(dihydroxy)-2H-1-benzopyran-2-one], for which the inhibition in vivo at 10 mg/kg stood at 41%.
